Measurements as given in the Kinase Knowledgebase extract (Sharma et al. 2016).

These compounds were tested against PIK3CA (human) (UniProt P42336) (assay: Enzyme Assay).
Chain of PIK3CA (human) (P42336 whole entry, looked up): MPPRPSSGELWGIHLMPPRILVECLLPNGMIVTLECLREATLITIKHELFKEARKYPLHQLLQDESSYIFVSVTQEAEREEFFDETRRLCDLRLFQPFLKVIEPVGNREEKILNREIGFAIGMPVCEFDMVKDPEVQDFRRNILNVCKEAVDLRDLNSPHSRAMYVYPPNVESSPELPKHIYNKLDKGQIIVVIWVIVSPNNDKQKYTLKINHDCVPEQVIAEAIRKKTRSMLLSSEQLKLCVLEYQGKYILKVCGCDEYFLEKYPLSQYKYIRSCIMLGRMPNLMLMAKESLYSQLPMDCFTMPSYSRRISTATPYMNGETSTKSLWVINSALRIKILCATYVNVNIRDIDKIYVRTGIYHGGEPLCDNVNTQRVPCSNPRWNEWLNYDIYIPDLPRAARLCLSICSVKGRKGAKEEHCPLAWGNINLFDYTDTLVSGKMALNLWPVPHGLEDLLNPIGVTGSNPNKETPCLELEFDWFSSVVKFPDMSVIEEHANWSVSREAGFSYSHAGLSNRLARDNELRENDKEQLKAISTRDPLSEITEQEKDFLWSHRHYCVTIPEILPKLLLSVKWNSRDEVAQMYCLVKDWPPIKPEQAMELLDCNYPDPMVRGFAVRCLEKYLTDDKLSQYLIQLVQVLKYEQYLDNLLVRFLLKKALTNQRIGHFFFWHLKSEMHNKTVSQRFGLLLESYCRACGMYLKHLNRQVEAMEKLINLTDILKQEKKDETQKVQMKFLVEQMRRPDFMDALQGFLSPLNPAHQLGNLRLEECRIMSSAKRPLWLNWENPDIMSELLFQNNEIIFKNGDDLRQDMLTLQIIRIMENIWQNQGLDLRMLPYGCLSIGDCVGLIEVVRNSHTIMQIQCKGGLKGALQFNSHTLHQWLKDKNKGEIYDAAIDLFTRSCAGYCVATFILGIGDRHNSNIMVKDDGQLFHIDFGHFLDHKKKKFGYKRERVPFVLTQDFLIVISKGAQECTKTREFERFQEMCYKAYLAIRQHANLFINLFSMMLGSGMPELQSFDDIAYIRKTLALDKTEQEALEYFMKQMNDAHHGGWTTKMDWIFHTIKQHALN

SMILES	IC50 [nM]
CNC(=O)Nc1ccc(-c2ccc3ncc4c(c3c2)n(-c2cccc(F)c2)c(=O)n4C)cn1	21
CNC(=O)Nc1ccc(-c2ccc3ncc4c(c3c2)n(-c2cccc(F)c2Cl)c(=O)n4C)cn1	5
Cc1c(F)cccc1-n1c(=O)n(C)c2cnc3ccc(-c4cncc(OCC#N)c4)cc3c21	66
COCCOc1cncc(-c2ccc3ncc4c(c3c2)n(-c2ccc(F)c(C(F)(F)F)c2)c(=O)n4C)c1	107
CNC(=O)Nc1ccc(-c2ccc3ncc4c(c3c2)n(-c2cccc(Cl)c2F)c(=O)n4C)cn1	3
Cn1c(=O)n(-c2ccc(C(C)(C)C#N)cc2)c2c3cc(-c4cncc(OC(F)F)c4)ccc3ncc21	10
Cn1c(=O)n(-c2ccc(C(C)(C)C#N)cc2)c2c3cc(-c4ccc(NC(=O)C(F)(F)F)nc4)ccc3ncc21	33
COC(=O)Nc1ccc(-c2ccc3ncc4c(c3c2)n(-c2ccc(C(F)(F)F)nc2C)c(=O)n4C)cn1	2.4
CNC(=O)Nc1ccc(-c2ccc3ncc4c(c3c2)n(-c2ccccc2C)c(=O)n4C)cn1	12
CNC(=O)Nc1ccc(-c2ccc3ncc4c(c3c2)n(-c2cccc(C(F)(F)F)c2C)c(=O)n4C)cn1	1
COC(=O)Nc1ccc(-c2ccc3ncc4c(c3c2)n(-c2cccc(F)c2C)c(=O)n4C)cn1	40
CNC(=O)Nc1ccc(-c2ccc3ncc4c(c3c2)n(-c2ccc(Cl)cc2C)c(=O)n4C)cn1	9
Cc1ncc(-c2ccc3ncc4c(c3c2)n(-c2ccc(C(C)(C)C#N)cc2)c(=O)n4C)cc1OCCF	5
COC(=O)Nc1cncc(-c2ccc3ncc4c(c3c2)n(-c2cccc(C(F)(F)F)c2)c(=O)n4C)c1	146
CNC(=O)Nc1ccc(-c2ccc3ncc4c(c3c2)n(-c2cccc(Cl)c2C)c(=O)n4C)cn1	6
COC(=O)Nc1ccc(-c2ccc3ncc4c(c3c2)n(-c2ccc(Cl)cc2Cl)c(=O)n4C)cn1	85
COC(=O)Nc1ccc(-c2ccc3ncc4c(c3c2)n(-c2cccc(C(F)(F)F)c2C)c(=O)n4C)cn1	15
CNC(=O)Nc1ccc(-c2ccc3ncc4c(c3c2)n(-c2cccc(C(F)(F)F)c2)c(=O)n4C)cn1	2
Cn1c(=O)n(-c2ccc(C(C)(C)C#N)cc2)c2c3cc(-c4ccc(NC(=O)NCCO)nc4)ccc3ncc21	22
COCC(=O)Nc1ccc(-c2ccc3ncc4c(c3c2)n(-c2ccc(F)c(C(F)(F)F)c2)c(=O)n4C)cn1	90
Cn1c(=O)n(-c2ccc(C(C)(C)C#N)cc2)c2c3cc(-c4cncc(OCCF)c4)ccc3ncc21	23
Cn1c(=O)n(-c2ccc(C(C)(C)C#N)cc2)c2c3cc(-c4ccc(NC(=O)NC5CCOC5)nc4)ccc3ncc21 (stereo unspecified)	44
CNC(=O)Nc1ccc(-c2ccc3ncc4c(c3c2)n(-c2cccc(F)c2C)c(=O)n4C)cn1	7
C=CC(=O)Nc1ccc(-c2ccc3ncc4c(c3c2)n(-c2cccc(C(F)(F)F)c2)c(=O)n4C)cn1	45

SMILES	IC50 [nM]
Cn1c(=O)n(-c2cccc(C(F)(F)F)c2)c2c3cc(-c4cncc(OCCF)c4)ccc3ncc21	115
COCC(=O)Nc1ccc(-c2ccc3ncc4c(c3c2)n(-c2cccc(C(F)(F)F)c2)c(=O)n4C)cn1	32
Cn1c(=O)n(-c2cccc(C(F)(F)F)c2)c2c3cc(-c4ccc(NC(=O)CC#N)nc4)ccc3ncc21	18
C/C=C/C(=O)Nc1ccc(-c2ccc3ncc4c(c3c2)n(-c2ccc(C(C)(C)C#N)cc2)c(=O)n4C)cn1	14
COC(=O)Nc1ccc(-c2ccc3ncc4c(c3c2)n(-c2cccc(Cl)c2F)c(=O)n4C)cn1	4
Cc1ncc(-c2ccc3ncc4c(c3c2)n(-c2cccc(F)c2C)c(=O)n4C)cc1OCCF	21
CNC(=O)Nc1ccc(-c2ccc3ncc4c(c3c2)n(-c2ccc(Cl)cc2Cl)c(=O)n4C)cn1	87
C=CC(=O)Nc1ccc(-c2ccc3ncc4c(c3c2)n(-c2cccc(F)c2C)c(=O)n4C)cn1	52
COCC(=O)Nc1cncc(-c2ccc3ncc4c(c3c2)n(-c2ccc(C(C)(C)C#N)cc2)c(=O)n4C)c1	63
CNC(=O)Nc1ccc(-c2ccc3ncc4c(c3c2)n(-c2ccc(F)cc2)c(=O)n4C)cn1	8
C=CC(=O)Nc1ccc(-c2ccc3ncc4c(c3c2)n(-c2ccc(C(C)(C)C#N)cc2)c(=O)n4C)cn1	5
Cn1c(=O)n(-c2ccc(C(C)(C)C#N)cc2)c2c3cc(-c4ccc(NC(=O)CC#N)nc4)ccc3ncc21	24
COCc1ccc(-c2ccc3ncc4c(c3c2)n(-c2ccc(C(C)(C)C#N)cc2)c(=O)n4C)cn1	44
COC(=O)Nc1ccc(-c2ccc3ncc4c(c3c2)n(-c2cccc(C(F)(F)F)c2)c(=O)n4C)cn1	6
COC(=O)Nc1ccc(-c2ccc3ncc4c(c3c2)n(-c2cccc(Cl)c2C)c(=O)n4C)cn1	27
Cn1c(=O)n(-c2ccc(C(C)(C)C#N)cc2)c2c3cc(-c4cncc(OCC#N)c4)ccc3ncc21	22
Cn1c(=O)n(-c2ccc(C(C)(C)C#N)cc2)c2c3cc(-c4cncc(OCC(F)(F)F)c4)ccc3ncc21	19
CNC(=O)Nc1ccc(-c2ccc3ncc4c(c3c2)n(-c2cccnc2OC)c(=O)n4C)cn1	19
CNC(=O)Nc1ccc(-c2ccc3ncc4c(c3c2)n(-c2ccccc2C(F)(F)F)c(=O)n4C)cn1	4
C#Cc1cncc(-c2ccc3ncc4c(c3c2)n(-c2cccc(C(F)(F)F)c2)c(=O)n4C)c1	22
COC(=O)Nc1ccc(-c2ccc3ncc4c(c3c2)n(-c2ccccc2C)c(=O)n4C)cn1	48
Cn1c(=O)n(-c2ccc(F)c(Cl)c2)c2c3cc(-c4cncc(OCCF)c4)ccc3ncc21	47
COC(=O)Nc1cncc(-c2ccc3ncc4c(c3c2)n(-c2ccc(C(C)(C)C#N)cc2)c(=O)n4C)c1	9
Cc1ncc(-c2ccc3ncc4c(c3c2)n(-c2ccc(C(C)(C)C#N)cc2)c(=O)n4C)cc1OC(F)F	133

SMILES	IC50 [nM]
CNC(=O)Nc1ccc(-c2ccc3ncc4c(c3c2)n(-c2c(C)cccc2C)c(=O)n4C)cn1	107
COC(=O)Nc1ccc(-c2ccc3ncc4c(c3c2)n(-c2cccc(C)c2C)c(=O)n4C)cn1	31
Cc1ncc(-c2ccc3ncc4c(c3c2)n(-c2cccc(C(F)(F)F)c2)c(=O)n4C)cc1OCCF	14
COC(=O)Nc1ccc(-c2ccc3ncc4c(c3c2)n(-c2cccc(F)c2Cl)c(=O)n4C)cn1	16
C#Cc1cncc(-c2ccc3ncc4c(c3c2)n(-c2ccc(C(C)(C)C#N)cc2)c(=O)n4C)c1	12
COC(=O)Nc1cncc(-c2ccc3ncc4c(c3c2)n(-c2cccc(Cl)c2C)c(=O)n4C)c1	80
COCCOc1cncc(-c2ccc3ncc4c(c3c2)n(-c2ccc(C(C)(C)C#N)cc2)c(=O)n4C)c1	76
COCC(=O)Nc1ccc(-c2ccc3ncc4c(c3c2)n(-c2ccc(C(C)(C)C#N)cc2)c(=O)n4C)cn1	15
COC(=O)Nc1ccc(-c2ccc3ncc4c(c3c2)n(-c2ccc(F)c(Cl)c2)c(=O)n4C)cn1	94
COCCOc1cc(-c2ccc3ncc4c(c3c2)n(-c2cccc(C(F)(F)F)c2)c(=O)n4C)cnc1C	40
CNC(=O)Nc1ccc(-c2ccc3ncc4c(c3c2)n(-c2ccc(C(C)(C)C#N)cc2)c(=O)n4C)cn1	21
C#Cc1ccc(-c2ccc3ncc4c(c3c2)n(-c2ccc(C(C)(C)C#N)cc2)c(=O)n4C)cn1	6
COC(=O)Nc1ccc(-c2ccc3ncc4c(c3c2)n(-c2ccccc2C(F)(F)F)c(=O)n4C)cn1	12
Cn1c(=O)n(-c2ccc(C(C)(C)C#N)cc2)c2c3cc(-c4ccc(NC(=O)C5CC5)nc4)ccc3ncc21	6
COC(=O)Nc1ccc(-c2ccc3ncc4c(c3c2)n(-c2cccnc2OC)c(=O)n4C)cn1	57
CNC(=O)Nc1ccc(-c2ccc3ncc4c(c3c2)n(-c2ccc(N3CCN(C)CC3)c(C(F)(F)F)c2)c(=O)n4C)cn1	3
COCCOc1cc(-c2ccc3ncc4c(c3c2)n(-c2ccc(C(C)(C)C#N)cc2)c(=O)n4C)cnc1C	18
CNC(=O)Nc1ccc(-c2ccc3ncc4c(c3c2)n(-c2cccc(C)c2C)c(=O)n4C)cn1	3
CCOC(=O)Nc1ccc(-c2ccc3ncc4c(c3c2)n(-c2cccc(C(F)(F)F)c2)c(=O)n4C)cn1	103
COC(=O)Nc1ccc(-c2ccc3ncc4c(c3c2)n(-c2ccc(F)c(C(F)(F)F)c2)c(=O)n4C)cn1	25
Cn1c(=O)n(-c2ccc(C(C)(C)C#N)cc2)c2c3cc(-c4ccc(NC=O)nc4)ccc3ncc21	19
CNC(=O)Nc1ccc(-c2ccc3ncc4c(c3c2)n(-c2ccc(F)cc2C)c(=O)n4C)cn1	12
CNC(=O)Nc1ccc(-c2ccc3ncc4c(c3c2)n(-c2ccc(F)c(C(F)(F)F)c2)c(=O)n4C)cn1	5
